Test results reported in USRE40793E1, “Bicyclic benzamides of 3-or 4-substituted 4-(aminomethyl)-piperidine derivatives” (Janssen Pharmaceutica, N.V., priority 1997, dated 2009).

System: conscious dogs
Assay: Gastric emptying of an acaloric liquid test meal delayed by administration of lidamidine, in conscious dogs
Assay type: in vivo, beagle dogs
Details: conscious dog; for ΔT/T^b (acceleration of gastric emptying of a liquid meal delayed by lidamidine) / change in vivo at 0.0025 mg/kg: dose 0.0025 mg/kg; for ΔT/T^a (acceleration of gastric emptying of a liquid meal delayed by lidamidine) / change in vivo at 0.01 mg/kg: dose 0.01 mg/kg; for change in vivo at 0.0025 mg/kg / change in vivo at 0.01 mg/kg: Canis lupus familiaris; for change in vivo at 0.0025 mg/kg: read-out: ΔT/T^b (acceleration of gastric emptying of a liquid meal delayed by lidamidine); for change in vivo at 0.01 mg/kg: read-out: ΔT/T^a (acceleration of gastric emptying of a liquid meal delayed by lidamidine)
Source text: C. Pharmacological Examples C.1. Gastric Emptying of an Acaloric Liquid Test Meal Delayed by Administration of Lidamidine, in Conscious Dogs
Female beagle dogs, weighing 7-14 kg, were trained to stand quietly in Pavlov frames. They were implanted with a gastric cannula under general anesthesia and aseptic precautions. After a medium laparatomy, an incision was made through the gastric wall in the longitudinal direction between the greater and the lesser curve, 2 cm above the nerves of Latarjet. The cannula was secured to the gastric wall by means of a double purse string suture and brought out via a stab wound at the left quadrant of the hypochondrium. Dogs were allowed a recovery period of at least two weeks. Experiments were started after a fasting period of 24 hours, during which water was available ad libitum. At the beginning of the experiment, the cannula was opened in order to remove any gastric juice or food remnants.
The stomach was cleansed with 40 to 50 ml lukewarm water. The test compound was administered I.V. (in a volume ≦3 ml via the vena cephalica), S.C. (in a volume ≦3 ml) or P.O. (in a volume of 1 ml/kg body weight, applied intragastrically via the cannula with a device that filled the lumen of the cannula: after injection of the test compound; 5 ml NaCl 0.9% was injected in order to correct for the dead space in the injection system). Immediately after administration of the test compound or its solvent, lidamidine (0.63 mg/kg was administered subcutaneously. 30 min later, the cannula was opened to determine the amount of fluid present in the stomach, promptly followed by reintroduction of the fluid. Then the test meal was administered via the cannula. This test meal consisted of 250 ml distilled water containing glucose (5 g/l) as a marker. The cannula remained closed for 30 min, whereafter the gastric contents were drained from the stomach to measure total volume (t=30 min). For later analysis 1 ml of the gastric contents was taken, promptly followed by reintroduction of the rest volume into the stomach. This sequence was repeated 4 times with 30 min intervals (t=60, 90, 120, 150 min).
In the 1 ml samples of the gastric contents, the glucose concentrations were measured on a Hitachi 717 automatic analyzer by the hexokinase method (Schmidt, 1961).
Curves were fitted to the measurement points (glucose versus time) using weighed non-linear regression analysis. Gastric emptying was quantified as the time needed to empty 70% of the meal (t 70%). The control emptying time was calculated as the mean t 70% of the last 5 solvent experiments of the same dog. Acceleration of delayed gastric emptying (Δt) was calculated as the time difference between t 70% compound and t 70% solvent. To correct for variations in emptying rate between dogs, Δt was expressed as % of t 70% solvent (Schuurkes et al. 1992)).

[1] = compounds, Δt = t 70% compound minus t 70% solvent, relative to t 70% solvent

SMILES | ΔT/T^b (acceleration of gastric emptying of a liquid meal delayed by lidamidine) [1] | ΔT/T^a (acceleration of gastric emptying of a liquid meal delayed by lidamidine) [1] | ΔT/T^b (acceleration of gastric emptying of a liquid meal delayed by lidamidine) (intermediates) | ΔT/T^a (acceleration of gastric emptying of a liquid meal delayed by lidamidine) (intermediates) | change in vivo at 0.0025 mg/kg [1] [%] | change in vivo at 0.01 mg/kg [1] [%]
Nc1c(Cl)cc(C(=O)NC[C@@H]2CCN(CCOCCO)C[C@H]2O)c2c1CCO2 (racemic) [Compound 17] | −0.30 | 0.06 | −0.18 | −0.28 |  | 
COCCCN1CC[C@@H](CNC(=O)c2cc(Cl)c(N)c3c2OC(C)(C)C3)[C@H](O)C1.O=C(O)C(=O)O (racemic) [Compound 37] | −0.41 | −0.62 |  |  |  | 
CCCCN1CC[C@@H](CNC(=O)c2cc(Cl)c(N)c3c2OC(C)(C)C3)[C@H](OC)C1.O=C(O)C(=O)O (relative stereo) [Compound 51] |  | −0.45 |  |  |  | 
CC(=O)CCCN1CC[C@H](CNC(=O)c2cc(Cl)c(N)c3c2OCC3)[C@H](O)C1 (relative stereo) [Compound 4, (cis)-4-amino-5-chloro-2,3-dihydro-N-[[3-hydroxy-1-(4-oxopentyl)-4-piperidinyl]methyl]-7-benzofurancarboxamide] |  |  |  |  | -21 | -8
COCCCN1CC[C@@H](CNC(=O)c2cc(Cl)c(N)c3c2OCC3)[C@H](OC)C1 (relative stereo) [Compound 30, trans-4-amino-5-chloro-2,3-dihydro-N-[[3-methoxy-1-(3-methoxypropyl)-4-piperidinyl]methyl]-7-benzofurancarboxamide] |  |  |  |  | -55 | -59
CC(=O)CCCN1CC[C@@H](CNC(=O)c2cc(Cl)c(N)c3c2OCC3)[C@H](O)C1 (relative stereo) [Compound 5, trans-4-amino-5-chloro-2,3-dihydro-N-[[3-hydroxy-1-(4-oxopentyl)-4-piperidinyl]methyl]-7-benzofurancarboxamide] |  |  |  |  | -57 | -36
